In patent publication US20060141486A1, “Porous substrates and arrays comprising the same” (priority 2004, published 2006):

Experiments:
Assay in all cases: GPCR array binding assay on flow-through microplate with GAPS porous substrate
[1] = target: T1, human muscarinic receptor subtype 1 (M1) (Homo sapiens, UniProt P11229)
T1 sequence (P11229 1-460): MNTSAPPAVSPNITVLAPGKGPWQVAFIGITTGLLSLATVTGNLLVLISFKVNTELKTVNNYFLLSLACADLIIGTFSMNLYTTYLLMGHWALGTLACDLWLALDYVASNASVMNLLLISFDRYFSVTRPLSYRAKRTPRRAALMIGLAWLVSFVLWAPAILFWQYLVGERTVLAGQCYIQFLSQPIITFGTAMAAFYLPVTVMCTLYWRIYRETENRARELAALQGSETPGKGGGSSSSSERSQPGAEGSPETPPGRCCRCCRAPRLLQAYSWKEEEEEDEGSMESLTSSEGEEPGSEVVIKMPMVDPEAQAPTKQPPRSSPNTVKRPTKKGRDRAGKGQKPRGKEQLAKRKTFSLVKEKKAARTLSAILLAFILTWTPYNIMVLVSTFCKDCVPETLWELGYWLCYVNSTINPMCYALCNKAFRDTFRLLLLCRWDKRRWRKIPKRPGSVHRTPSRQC
Procedure: (§1) 96 patches of silica-based porous substrate (GAPS™, Corning Inc.) were screen printed onto a 1737 glass support plate, and sintered at 695° C. The glass support was pre-fabricated by sand blasting to generate 192 microchannels. Under each porous patch, there are two microchannels which provide access to the porous patch from the opposite side of the glass support. Human muscarinic receptor subtype 1 (M1), delta opioid receptor subtype 2 (delta2), and muscarinic receptor subtype 2 (M2) were printed onto the GAPS™-porous substrate with a configuration such that each receptor was aligned in one column with four replicates (i.e., columns 1, 2 and 3 for M1, delta2 and M2 receptors, respectively; see FIG. 4A). […] After one hour incubation, a vacuum force was applied to remove the assay solution and the sequential washing solution before the array was finally being dried.

[2] = target: T2, human muscarinic receptor subtype 2 (M2) (Homo sapiens, UniProt P08172)
T2 sequence (P08172 1-466): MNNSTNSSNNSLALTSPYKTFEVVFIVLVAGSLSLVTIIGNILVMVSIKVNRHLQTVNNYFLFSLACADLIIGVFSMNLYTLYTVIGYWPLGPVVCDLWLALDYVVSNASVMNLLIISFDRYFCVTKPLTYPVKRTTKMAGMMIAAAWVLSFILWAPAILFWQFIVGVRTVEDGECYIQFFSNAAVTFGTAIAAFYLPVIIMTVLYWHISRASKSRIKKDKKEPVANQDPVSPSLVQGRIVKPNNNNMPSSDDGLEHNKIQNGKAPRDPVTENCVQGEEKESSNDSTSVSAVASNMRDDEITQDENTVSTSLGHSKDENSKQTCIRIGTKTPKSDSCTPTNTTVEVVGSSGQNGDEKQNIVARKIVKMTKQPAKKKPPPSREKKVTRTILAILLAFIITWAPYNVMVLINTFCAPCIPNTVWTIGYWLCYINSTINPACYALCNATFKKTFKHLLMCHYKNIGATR
Procedure: as §1

[3] = target: human delta opioid receptor subtype 2 (delta2) (Homo sapiens, UniProt P41143); settings: 4 nM Cy5-naltrexone in cocktail of labeled ligands, one hour incubation, FIG. 4A
Sequence of human delta opioid receptor subtype 2 (delta2) (P41143 whole entry): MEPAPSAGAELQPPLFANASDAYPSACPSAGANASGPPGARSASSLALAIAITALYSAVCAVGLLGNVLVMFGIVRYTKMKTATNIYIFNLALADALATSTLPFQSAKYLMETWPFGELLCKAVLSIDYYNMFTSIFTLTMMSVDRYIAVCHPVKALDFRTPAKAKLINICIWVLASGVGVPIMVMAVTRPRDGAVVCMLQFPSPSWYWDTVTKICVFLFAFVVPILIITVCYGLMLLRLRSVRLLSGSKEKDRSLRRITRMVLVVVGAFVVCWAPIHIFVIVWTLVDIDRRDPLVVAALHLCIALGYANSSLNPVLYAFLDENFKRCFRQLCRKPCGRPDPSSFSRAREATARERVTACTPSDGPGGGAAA
Procedure: as §1

[4] = unlabeled telenzepine 2 μM (with naltrexone 4 μM), FIG. 4B
[5] = 2 nM Cy3B-telenzepine in cocktail of labeled ligands, one hour incubation, FIG. 4A

Cc1scc2c1N(C(=O)CN1CCN(C)CC1)c1ccccc1NC2=O [telenzepine]
inhibition of Cy3B-telenzepine binding to M1 receptor by unlabeled compound [1, 4]: inhibited | inhibition of Cy3B-telenzepine binding to M2 receptor by unlabeled compound [2, 4]: inhibited

Cy3B-telenzepine
binding of labeled ligand to M1 receptor microspots (fluorescence) [1, 5]: strong binding | binding of labeled ligand to M2 receptor microspots (fluorescence) [2, 5]: Weak binding signals

Cy5-naltrexone
binding of labeled ligand to delta2 receptor microspots (fluorescence) [3]: strong binding
